According to patent publication US20110039763A1, “TARGETED ANTIMICROBIAL MOIETIES” (C3 JIAN, INC., priority 2009, published 2011):
Entries after “also recorded” stand apart in the source; their conditions may differ.

Assays:
microorganisms [1] = assay: Peptide activities: targeting/binding, antimicrobial, growth or phenotype altering (Tables 7, 8); assay type: cell-based; conditions: peptides having multiple activities
microorganisms [2] = assay: Targeting peptide binding to target microorganisms (Tables 3, 10, 12); conditions: microorganism(s) the targeting peptide binds, preferably 1x PBS
microorganisms [3] = assay: Morphology, biofilm and growth disrupting peptides (Table 5); assay type: cell-based; set-up: key: A: Peptide aggregates; B: Less hyphal formation; Clumps; Diffuse clumps and small polyps; F: Diffuse growth; H: Thin; I: Growth inhibition; Microcolony formation; Rippled; Small polyps; Thick; W: Halo formation on top, microlonies on bottom
Text: In certain embodiments peptides that induce alterations in phenotype or other biological activities can also be used as antimicrobial effector moieties.

[4] = binding in aqueous buffers varied with peptide solubility
[5] = binding in aqueous buffers that varied with peptide solubility

## PF-622: peptide having multiple activities (chain 1 TREDVFSVRLINNIVNKQA; chain 2 TREDVFSVRLINNIVNKQA; Peptide with targeting and/or antimicrobial activity)
Microorganisms [1]
  Activities: G B
Microorganisms [2]; [4]
  Target(s): S. epidermidis; also recorded: P. aeruginosa; also recorded: C. albicans; also recorded: S. pneumoniae; also recorded: E. faecalis; also recorded: C. jeikeium
Microorganisms [3]; C. jeikeium
  Organism, effect: C. jeikeium (D)
Microorganisms [3]; E. faecalis
  Organism, effect: E. faecalis (D)
Microorganisms [3]; MRSA
  Organism, effect: MRSA (D)
Microorganisms [3]; S. epidermidis
  Organism, effect: S. epidermidis (D)
Microorganisms [3]; S. pneumoniae
  Organism, effect: S. pneumoniae (M)

## PF-215: peptide having multiple activities (ELKITNYNVNTVLYRYYKWGNDLCE; Peptide with targeting and/or antimicrobial activity)
Microorganisms [1]
  Activities: G B
Microorganisms [2]; [4]
  Target(s): S. epidermidis; also recorded: M. luteus; also recorded: P. aeruginosa; also recorded: A. baumannii
Microorganisms [3]
  Organism, effect: M. luteus: M. luteus (T)

## PF-385: peptide having multiple activities (chain 1 MIKKSILKIKYYVPVLISLTLILSA; chain 2 MIKKSILKIKYYVPVLISLTLILSA; Peptide with targeting and/or antimicrobial activity)
Microorganisms [1]
  Activities: G B
Microorganisms [2]; [4]
  Target(s): S. epidermidis; also recorded: E. coli; also recorded: P. aeruginosa; also recorded: C. albicans; also recorded: E. faecalis
Microorganisms [3]; E. coli
  Organism, effect: E. coli: E. coli (A)

## PF-757: peptide having multiple activities (PQAISSVQQNA; Peptide with targeting and/or antimicrobial activity)
Microorganisms [1]
  Activities: G B
Microorganisms [2]; [4]
  Target(s): M. luteus and C. albicans and MRSA
Microorganisms [3]; S. pneumoniae
  Organism, effect: S. pneumoniae (H)

## DEIKVSDEEIEKFIKENNL [PF-597]
Microorganisms [1]
  Activities: G B
Microorganisms [2]; [4]
  Target(s): P. mirabilis
Microorganisms [3]; E. faecalis
  Organism, effect: E. faecalis (A)

## ALDCSEQSVILWYETILDKIVGVIK [PF-028]
Microorganisms [1]
  Activities: G B
Microorganisms [2]; [5]
  Target(s): S. epidermidis and M. luteus and MRSA
Microorganisms [3]; C. jeikeium
  Organism, effect: C. jeikeium: C. jeikeium (M)
Microorganisms [3]; MRSA
  Organism, effect: MRSA: MRSA (R)
Microorganisms [3]; S. epidermidis
  Organism, effect: S. epidermidis: S. epidermidis (M)

## PF-632: peptide having multiple activities (chain 1 TTIQGVASLEKHGFRYTIIYPTRI; chain 2 TTIQGVASLEKHGFRYTIIYPTRI; Peptide with targeting and/or antimicrobial activity)
Microorganisms [1]
  Activities: G B
Microorganisms [2]; [4]
  Target(s): S. epidermidis and P. aeruginosa and C. albicans and MRSA and S. pneumoniae and E. faecalis and C. jeikeium
Microorganisms [3]; B. subtilis
  Organism, effect: B. subtilis (H)
Microorganisms [3]; C. albicans
  Organism, effect: C. albicans (B)
Microorganisms [3]; C. jeikeium
  Organism, effect: C. jeikeium (D)
Microorganisms [3]; E. faecalis
  Organism, effect: E. faecalis (D)
Microorganisms [3]; MRSA
  Organism, effect: MRSA (D)
Microorganisms [3]; S. epidermidis
  Organism, effect: S. epidermidis (D)
Microorganisms [3]; S. pneumoniae
  Organism, effect: S. pneumoniae (M)

## PF-025: peptide having multiple activities (LLIIFRLWLELKWKNKK; Peptide with targeting and/or antimicrobial activity)
Microorganisms [1]
  Activities: G B
Microorganisms [2]; [5]
  Target(s): S. epidermidis and M. luteus and P. mirabilis and E. coli and P. aeruginosa and MRSA and E. faecalis and C. jejuni
Microorganisms [3]; C. jeikeium
  Organism, effect: C. jeikeium: C. jeikeium (A)
Microorganisms [3]
  Organism, effect: M. luteus: M. luteus (A)
Microorganisms [3]; MRSA
  Organism, effect: MRSA: MRSA (R)
Microorganisms [3]; S. epidermidis
  Organism, effect: S. epidermidis: S. epidermidis (S)

## PF-637: peptide having multiple activities (chain 1 SRIKQDARSVRKYDRIGIFFYSFKSA; chain 2 SRIKQDARSVRKYDRIGIFFYSFKSA; Peptide with targeting and/or antimicrobial activity)
Microorganisms [1]
  Activities: G B
Microorganisms [2]; [4]
  Target(s): S. epidermidis and P. aeruginosa and C. albicans and MRSA and S. pneumoniae and E. faecalis and C. jeikeium
Microorganisms [3]; C. jeikeium
  Organism, effect: C. jeikeium (D)
Microorganisms [3]; E. faecalis
  Organism, effect: E. faecalis (D)
Microorganisms [3]; MRSA
  Organism, effect: MRSA (M)
Microorganisms [3]; S. epidermidis
  Organism, effect: S. epidermidis (M)
Microorganisms [3]; S. pneumoniae
  Organism, effect: S. pneumoniae (M)

## PF-099: peptide having multiple activities (chain 1 EIIAYLEGRFANA; chain 2 EIIAYLEGRFANA; Peptide with targeting and/or antimicrobial activity)
Microorganisms [1]
  Activities: G B
Microorganisms [2]; [4]
  Target(s): S. epidermidis; also recorded: M. luteus; also recorded: E. coli; also recorded: C. jeikeium
Microorganisms [3]; C. jeikeium
  Organism, effect: C. jeikeium: C. jeikeium (C)
Microorganisms [3]; S. epidermidis
  Organism, effect: S. epidermidis: S. epidermidis (D)

## PF-599: peptide having multiple activities (chain 1 LFEIFKPKH; chain 2 LFEIFKPKH; Peptide with targeting and/or antimicrobial activity)
Microorganisms [1]
  Activities: G B
Microorganisms [2]; [4]
  Target(s): S. epidermidis and P. mirabilis and E. coli and C. albicans and MRSA and S. pneumoniae and C. jeikeium
Microorganisms [3]; C. jejuni
  Organism, effect: C. jejuni (R)
Microorganisms [3]; E. faecalis
  Organism, effect: E. faecalis (A)
Microorganisms [3]; MRSA
  Organism, effect: MRSA (C)
Microorganisms [3]; S. epidermidis
  Organism, effect: S. epidermidis (M)
Microorganisms [3]; S. pneumoniae
  Organism, effect: S. pneumoniae (R)

## PF-344: peptide having multiple activities (DERLPEAKAIRNFNGSVMVLGR; Peptide with targeting and/or antimicrobial activity)
Microorganisms [1]
  Activities: G B
Microorganisms [2]; [4]
  Target(s): B. subtilis; also recorded: C. jejuni
Microorganisms [3]; E. coli
  Organism, effect: E. coli: E. coli (A)

## PF-070: peptide having multiple activities (chain 1 SMVKSEIVDLLNGEDNDD; chain 2 SMVKSEIVDLLNGEDNDD; Peptide with targeting and/or antimicrobial activity)
Microorganisms [1]
  Activities: G B
Microorganisms [2]; [5]
  Target(s): S. epidermidis; also recorded: C. jejuni
Microorganisms [3]; B. subtilis
  Organism, effect: B. subtilis: B. subtilis (D)

## PF-192: peptide having multiple activities (VEEDEAPPPHY; Peptide with targeting and/or antimicrobial activity)
Microorganisms [1]
  Activities: G B
Microorganisms [2]; [4]
  Target(s): S. epidermidis; also recorded: M. luteus; also recorded: P. aeruginosa; also recorded: C. albicans; also recorded: E. faecalis; also recorded: C. jeikeium
Microorganisms [3]; S. epidermidis
  Organism, effect: S. epidermidis: S. epidermidis (D)

## PF-041: peptide having multiple activities (ELLVILPGFI; Peptide with targeting and/or antimicrobial activity)
Microorganisms [1]
  Activities: G B
Microorganisms [2]; [5]
  Target(s): MRSA
Microorganisms [3]; MRSA
  Organism, effect: MRSA: MRSA (M)
Microorganisms [3]; S. epidermidis
  Organism, effect: S. epidermidis: S. epidermidis (R)

## PF-554: peptide having multiple activities (AKNFLTRTAEEIGEQAVREGNINGP; Peptide with targeting and/or antimicrobial activity)
Microorganisms [1]
  Activities: G B
Microorganisms [2]; [4]
  Target(s): S. pneumoniae
Microorganisms [3]; B. subtilis
  Organism, effect: B. subtilis (D)

## PF-031: peptide having multiple activities (MPHHSTTSSRIVVPAHQSNMASTPNLSITP; Peptide with targeting and/or antimicrobial activity)
Microorganisms [1]
  Activities: G B
Microorganisms [2]; [5]
  Target(s): M. luteus; also recorded: C. albicans
Microorganisms [3]; MRSA
  Organism, effect: MRSA: MRSA (M)

## PF-576: peptide having multiple activities (AYSGELPEPLVRKMSKEQVRSVMGK; Peptide with targeting and/or antimicrobial activity)
Microorganisms [1]
  Activities: G B
Microorganisms [2]; [4]
  Target(s): M. luteus; also recorded: P. mirabilis; also recorded: E. coli; also recorded: P. aeruginosa; also recorded: C. albicans; also recorded: S. pneumoniae
Microorganisms [3]; C. jejuni
  Organism, effect: C. jejuni (C)
Microorganisms [3]; E. coli
  Organism, effect: E. coli (A)
Microorganisms [3]; MRSA
  Organism, effect: MRSA (R)
Microorganisms [3]; S. epidermidis
  Organism, effect: S. epidermidis (A)
Microorganisms [3]; S. pneumoniae
  Organism, effect: S. pneumoniae (C)

## VWENRKKYLENEIERHNVFLKLGQEVIKGLNALASRGR [PF-257]
Microorganisms [1]
  Activities: G B
Microorganisms [2]; [4]
  Target(s): S. epidermidis
Microorganisms [3]
  Organism, effect: M. luteus: M. luteus (R)

## PF-048: peptide having multiple activities (LYFAFKKYQERVNQAPNIEY; Peptide with targeting and/or antimicrobial activity)
Microorganisms [1]
  Activities: G B
Microorganisms [2]; [5]
  Target(s): S. epidermidis and M. luteus and E. coli and MRSA and C. jeikeium and C. jejuni
Microorganisms [3]; C. jeikeium
  Organism, effect: C. jeikeium: C. jeikeium (S)
Microorganisms [3]; MRSA
  Organism, effect: MRSA: MRSA (W)
Microorganisms [3]; S. epidermidis
  Organism, effect: S. epidermidis: S. epidermidis (D)

## PF-601: peptide having multiple activities (chain 1 YRVTVKALE; chain 2 YRVTVKALE; Peptide with targeting and/or antimicrobial activity)
Microorganisms [1]
  Activities: G B
Microorganisms [2]; [4]
  Target(s): C. jeikeium
Microorganisms [3]; C. jejuni
  Organism, effect: C. jejuni (A)
Microorganisms [3]; E. faecalis
  Organism, effect: E. faecalis (A)

## PF-626: peptide having multiple activities (chain 1 KYDFDDFEPEEA; chain 2 KYDFDDFEPEEA; Peptide with targeting and/or antimicrobial activity)
Microorganisms [1]
  Activities: G B
Microorganisms [2]; [4]
  Target(s): S. epidermidis and M. luteus and E. coli and C. albicans and MRSA and S. pneumoniae and E. faecalis and C. jeikeium
Microorganisms [3]; S. pneumoniae
  Organism, effect: S. pneumoniae (H)

## PF-517: peptide having multiple activities (VKPTMTASLISTVC; Peptide with targeting and/or antimicrobial activity)
Microorganisms [1]
  Activities: G B
Microorganisms [2]; [4]
  Target(s): C. jejuni
Microorganisms [3]; S. pneumoniae
  Organism, effect: S. pneumoniae (M)

## PF-035: peptide having multiple activities (SFYESY; Peptide with targeting and/or antimicrobial activity)
Microorganisms [1]
  Activities: G B
Microorganisms [2]; [5]
  Target(s): S. epidermidis and M. luteus and E. coli and C. albicans and MRSA and C. jeikeium and C. jejuni
Microorganisms [3]; MRSA
  Organism, effect: MRSA: MRSA (M)
